Measured values published in patent publication US9546173B2 (Novartis AG, priority 2012, dated 2017).

Key:
Format in all cases: biochemical
RSK2 = RSK2 (Homo sapiens (Human), UniProt P51812); assay: In vitro inhibition of RSK2; conditions: in vitro activity on RSK2; where multiple measurements were made, each value is reported
Description: (§1) The following Table 3 lists compounds that were tested for inhibition of RSK; the IC50 values are in micromolar units, and refer to inhibition of RSK1 and RSK2, respectively. Where multiple measurements were made, each value is reported.

RSK1 = RSK1 (Homo sapiens (Human), UniProt Q15418); assay: In vitro inhibition of RSK1; conditions: in vitro activity on RSK1
Description: as §1

activated ERK2 = activated ERK2 (Homo sapiens (Human), UniProt P28482); assay: Activated ERK2 kinase assay (AlphaScreen, ERKtide peptide phosphorylation); conditions: […] ERK2, 200 nM ERKtide peptide, 35 μM ATP, 30 min preincubation; read-out: ERK2 IC50
Chain of activated ERK2 (P28482 whole entry): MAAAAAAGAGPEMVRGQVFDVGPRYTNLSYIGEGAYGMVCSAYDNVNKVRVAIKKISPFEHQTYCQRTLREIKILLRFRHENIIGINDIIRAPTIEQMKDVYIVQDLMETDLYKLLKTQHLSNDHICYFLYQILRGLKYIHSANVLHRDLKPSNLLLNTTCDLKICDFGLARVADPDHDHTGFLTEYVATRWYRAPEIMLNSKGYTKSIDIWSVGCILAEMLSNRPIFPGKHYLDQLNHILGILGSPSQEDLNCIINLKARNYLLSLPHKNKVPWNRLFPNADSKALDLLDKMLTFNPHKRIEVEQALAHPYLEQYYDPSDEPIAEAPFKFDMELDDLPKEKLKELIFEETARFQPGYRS

Chain of RSK2 (P51812 whole entry, species assumed): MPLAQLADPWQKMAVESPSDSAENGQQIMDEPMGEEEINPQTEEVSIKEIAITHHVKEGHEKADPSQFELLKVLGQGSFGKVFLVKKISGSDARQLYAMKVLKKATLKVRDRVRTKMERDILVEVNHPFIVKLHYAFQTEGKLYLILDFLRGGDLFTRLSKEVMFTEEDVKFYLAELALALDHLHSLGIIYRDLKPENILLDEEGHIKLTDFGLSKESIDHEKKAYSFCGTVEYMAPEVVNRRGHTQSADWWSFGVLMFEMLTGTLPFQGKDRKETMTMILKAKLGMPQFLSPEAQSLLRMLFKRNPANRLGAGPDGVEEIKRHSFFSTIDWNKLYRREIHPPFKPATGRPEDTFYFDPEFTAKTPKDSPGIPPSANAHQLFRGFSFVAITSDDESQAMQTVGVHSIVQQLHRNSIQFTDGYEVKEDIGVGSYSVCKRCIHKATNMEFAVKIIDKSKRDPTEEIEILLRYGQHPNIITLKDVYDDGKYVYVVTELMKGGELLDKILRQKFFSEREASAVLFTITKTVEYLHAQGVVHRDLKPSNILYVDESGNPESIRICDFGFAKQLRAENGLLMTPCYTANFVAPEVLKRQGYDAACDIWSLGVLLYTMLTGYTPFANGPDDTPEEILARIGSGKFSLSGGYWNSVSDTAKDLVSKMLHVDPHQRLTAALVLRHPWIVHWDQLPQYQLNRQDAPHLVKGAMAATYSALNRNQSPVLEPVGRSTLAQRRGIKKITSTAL
Chain of RSK1 (Q15418 whole entry, species assumed): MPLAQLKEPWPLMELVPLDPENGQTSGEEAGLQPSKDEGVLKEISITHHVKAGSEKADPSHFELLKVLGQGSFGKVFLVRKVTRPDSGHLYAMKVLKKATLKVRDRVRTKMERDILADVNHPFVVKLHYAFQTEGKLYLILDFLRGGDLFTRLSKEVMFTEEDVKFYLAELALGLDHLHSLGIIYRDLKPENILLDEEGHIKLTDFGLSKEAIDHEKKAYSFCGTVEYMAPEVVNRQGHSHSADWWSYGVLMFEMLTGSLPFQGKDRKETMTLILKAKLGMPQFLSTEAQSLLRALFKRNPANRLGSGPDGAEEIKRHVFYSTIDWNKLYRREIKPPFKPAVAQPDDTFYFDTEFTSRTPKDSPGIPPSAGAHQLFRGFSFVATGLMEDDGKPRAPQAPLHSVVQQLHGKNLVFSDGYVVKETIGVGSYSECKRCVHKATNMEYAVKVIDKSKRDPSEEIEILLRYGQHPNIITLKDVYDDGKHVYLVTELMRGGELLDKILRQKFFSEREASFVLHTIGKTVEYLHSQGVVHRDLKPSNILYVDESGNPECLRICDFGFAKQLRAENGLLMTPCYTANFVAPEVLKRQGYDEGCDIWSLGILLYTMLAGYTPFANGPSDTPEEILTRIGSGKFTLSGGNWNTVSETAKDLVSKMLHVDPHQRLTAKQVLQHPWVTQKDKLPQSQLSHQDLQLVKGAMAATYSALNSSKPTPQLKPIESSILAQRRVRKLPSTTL

Row | SMILES | IC50 (RSK2) [nM] | IC50 (RSK1) [nM] | IC50 (activated ERK2) [µM]
1 | CN1CCN(C(=O)N2Cc3nc(Nc4ccccc4)ncc3C2(C)C)CC1 [compound 151, (5,5-dimethyl-2-(phenylamino)-5H-pyrrolo[3,4-d]pyrimidin-6(7H)-yl)(4-methylpiperazin-1-yl)methanone] | 1170 | 1610 | 5.57
2 | CN1CCN(C(=O)N2Cc3nc(Nc4ccccc4)ncc3C2(C)C)C(Cc2ccccc2)C1 (centres unmarked) [compound 154, (2-benzyl-4-methylpiperazin-1-yl)(5,5-dimethyl-2-(phenylamino)-5H-pyrrolo[3,4-d]pyrimidin-6(7H)-yl)methanone] | 1640 |  | 3.03
3 | CN1CCN(C(=O)N2Cc3nc(Nc4ccccc4)ncc3C2(C)C)CC1(C)C [compound 149, (5,5-dimethyl-2-(phenylamino)-5H-pyrrolo[3,4-d]pyrimidin-6(7H)-yl)(3,3,4-trimethylpiperazin-1-yl)methanone] | 611 |  | 37.7
4 | CN1CCC(NC(=O)N2Cc3nc(Nc4ccccc4)ncc3C2(C)C)CC1 [compound 163, 5,5-dimethyl-N-(1-methylpiperidin-4-yl)-2-(phenylamino)-5H-pyrrolo[3,4-d]pyrimidine-6(7H)-carboxamide] | 14000 |  | 83.5
5 | CC1(C)c2cnc(Nc3ccccc3)nc2CN1C(=O)NC1CCN(Cc2ccccc2)C1 (centres unmarked) [compound 155, N-(1-benzylpyrrolidin-3-yl)-5,5-dimethyl-2-(phenylamino)-5H-pyrrolo[3,4-d]pyrimidine-6(7H)-carboxamide] | 1910 |  | 0.969
